Measurements as given in publication PMC8452302 (CPT: Pharmacometrics & Systems Pharmacology, 2021).
Values belong to the molecule of their own block, whether it stands above or below them.

Experiments:
OATP1B3 = biological target: T1, OATP1B3 (Homo sapiens, UniProt Q9NPD5); test: OATP1B3-mediated transport of substrate; format: in vitro ADME; details: OATP1B3-transfected HEK293 cells
T1 sequence (Q9NPD5 1-702): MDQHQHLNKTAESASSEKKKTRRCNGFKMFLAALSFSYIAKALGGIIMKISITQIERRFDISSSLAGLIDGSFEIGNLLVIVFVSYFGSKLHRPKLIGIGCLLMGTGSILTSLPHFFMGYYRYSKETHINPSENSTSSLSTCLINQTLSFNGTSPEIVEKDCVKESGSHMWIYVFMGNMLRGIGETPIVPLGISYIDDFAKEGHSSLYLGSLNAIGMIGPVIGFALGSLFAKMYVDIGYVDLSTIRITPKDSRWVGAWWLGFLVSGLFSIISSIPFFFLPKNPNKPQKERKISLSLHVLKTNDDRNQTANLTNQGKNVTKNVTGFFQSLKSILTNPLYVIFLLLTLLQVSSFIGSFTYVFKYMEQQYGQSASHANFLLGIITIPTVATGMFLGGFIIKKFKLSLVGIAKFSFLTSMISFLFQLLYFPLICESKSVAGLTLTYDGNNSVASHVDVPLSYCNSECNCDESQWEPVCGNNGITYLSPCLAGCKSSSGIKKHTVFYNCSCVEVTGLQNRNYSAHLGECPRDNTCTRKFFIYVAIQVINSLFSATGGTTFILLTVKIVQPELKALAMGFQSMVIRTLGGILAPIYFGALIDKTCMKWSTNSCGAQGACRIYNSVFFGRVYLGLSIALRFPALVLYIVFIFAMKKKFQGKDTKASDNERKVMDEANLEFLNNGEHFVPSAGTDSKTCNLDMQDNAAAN

[1] = system: OATP1B1, OATP1B3, and OATP2B1; test: SLC-phenotyping of hepatic uptake; format: in vitro ADME, human; details: SLC-phenotyping methodology
Caco-2 permeability = format: in vitro ADME; details: human
BCRP [2] = biological target: T2, BCRP (Homo sapiens, UniProt Q9UNQ0); details: read-out: BCRP Km; membrane vesicle assay; cited from earlier work
T2 sequence (Q9UNQ0 1-655): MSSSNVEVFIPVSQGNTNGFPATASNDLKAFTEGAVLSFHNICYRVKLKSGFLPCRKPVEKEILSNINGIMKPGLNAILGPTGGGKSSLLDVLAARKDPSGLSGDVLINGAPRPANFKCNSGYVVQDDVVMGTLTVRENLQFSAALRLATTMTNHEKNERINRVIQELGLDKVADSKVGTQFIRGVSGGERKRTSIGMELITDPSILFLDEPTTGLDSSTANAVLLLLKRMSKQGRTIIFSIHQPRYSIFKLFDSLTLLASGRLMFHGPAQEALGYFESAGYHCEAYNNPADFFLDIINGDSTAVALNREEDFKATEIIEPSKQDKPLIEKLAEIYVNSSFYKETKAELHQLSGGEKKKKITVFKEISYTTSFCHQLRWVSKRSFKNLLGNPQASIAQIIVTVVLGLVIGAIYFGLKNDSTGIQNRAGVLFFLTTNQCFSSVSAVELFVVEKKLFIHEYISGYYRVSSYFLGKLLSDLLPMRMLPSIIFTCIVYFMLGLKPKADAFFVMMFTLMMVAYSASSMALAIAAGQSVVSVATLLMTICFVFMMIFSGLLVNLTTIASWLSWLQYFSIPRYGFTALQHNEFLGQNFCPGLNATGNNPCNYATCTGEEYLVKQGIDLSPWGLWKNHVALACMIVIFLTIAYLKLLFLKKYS

OATP2B1 = biological target: T3, OATP2B1 (Homo sapiens, UniProt O94956); test: OATP2B1-mediated transport of substrate; format: in vitro ADME; details: Estimated; optimized to recover ~40% Fa
T3 sequence (O94956 1-709): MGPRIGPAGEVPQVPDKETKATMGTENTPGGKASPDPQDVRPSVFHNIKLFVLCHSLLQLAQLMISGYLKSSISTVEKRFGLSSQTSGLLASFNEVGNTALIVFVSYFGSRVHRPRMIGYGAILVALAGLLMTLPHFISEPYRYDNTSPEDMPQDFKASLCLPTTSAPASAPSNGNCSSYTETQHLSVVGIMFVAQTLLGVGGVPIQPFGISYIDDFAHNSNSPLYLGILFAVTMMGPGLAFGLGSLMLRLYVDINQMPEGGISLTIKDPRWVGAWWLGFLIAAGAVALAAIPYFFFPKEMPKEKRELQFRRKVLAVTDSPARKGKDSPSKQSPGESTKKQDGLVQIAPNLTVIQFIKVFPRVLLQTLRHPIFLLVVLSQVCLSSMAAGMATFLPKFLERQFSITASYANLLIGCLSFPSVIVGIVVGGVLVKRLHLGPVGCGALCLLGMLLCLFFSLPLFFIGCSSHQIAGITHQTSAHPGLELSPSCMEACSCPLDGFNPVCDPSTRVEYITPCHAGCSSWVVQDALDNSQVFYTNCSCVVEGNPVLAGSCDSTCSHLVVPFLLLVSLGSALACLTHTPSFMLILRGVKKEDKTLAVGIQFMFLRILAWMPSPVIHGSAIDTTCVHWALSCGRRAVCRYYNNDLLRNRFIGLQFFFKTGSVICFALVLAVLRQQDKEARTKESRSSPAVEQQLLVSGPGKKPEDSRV

BCRP [3] = biological target: T2, BCRP; test: BCRP-mediated transport of substrate; format: in vitro ADME; details: Estimated; optimized to recover ~40% Fa
[4] = Physicochemical PBPK model inputs
[5] = cited from earlier work
[6] = Passive transport clearance; format: in vitro ADME, human; details: Measured using SCHH
BCRP (ABCG2 c.421C>A) = details: cited from earlier work
[7] = substrate: CC(C)c1nc(N(C)S(C)(=O)=O)nc(-c2ccc(F)cc2)c1/C=C/[C@@H](O)C[C@@H](O)CC(=O)O; test: BCRP-mediated transport of substrate; format: in vitro ADME, human; details: other: membrane vesicles
[8] = substrate: CC(C)c1nc(N(C)S(C)(=O)=O)nc(-c2ccc(F)cc2)c1/C=C/[C@@H](O)C[C@@H](O)CC(=O)O; test: OATP1B1-mediated transport of substrate; format: in vitro ADME; details: other: transfected HEK293 cells

Km (OATP1B3): 28.3 µM
share of active hepatic uptake driven by OATP1B1, OATP1B3, and OATP2B1 [1]: ~ 95%
Papp (Caco-2 permeability): 1.2 ×10⁻⁶ cm/s
Intestinal OATP2B1 CLint,T (OATP2B1): 0.002 µL/min
Intestinal BCRP Jmax (BCRP [3]): 380 pmol/min
pKa [4]: 4.33
CLPD basal (hepatic and renal) [6]: 1.1 µl/min/10^6
Molecule: CC(C)c1nc(N(C)S(C)(=O)=O)nc(-c2ccc(F)cc2)c1/C=C/[C@@H](O)C[C@@H](O)CC(=O)O [Rosuvastatin, rosuvastatin]
Km (BCRP [2]): 10.8 µM
contribution of OAT3-mediated active secretion to renal clearance [5]: greater than 90%
glomerular filtration rate [5]: ~ 0.22 ml/min/kg
renal clearance [5]: ~ 2.6 ml/min/kg
oral bioavailability ([5]; human, in vivo, po): ~ 20%

Molecule: O=C(O)c1cc(/N=N/c2ccc(S(=O)(=O)Nc3ccccn3)cc2)ccc1O [sulfasalazine]
increase in oral exposure, c.421A/A vs c.421C/C carriers (BCRP (ABCG2 c.421C>A)): ≤ 3.5 fold

B1: BCRP (Homo sapiens) (protein)
chain: T2 sequence (Q9UNQ0 1-655)
Km [7]: 3.2 µM

B2: OATP1B1 (Homo sapiens) (protein)
chain: MDQNQHLNKTAEAQPSENKKTRYCNGLKMFLAALSLSFIAKTLGAIIMKSSIIHIERRFEISSSLVGFIDGSFEIGNLLVIVFVSYFGSKLHRPKLIGIGCFIMGIGGVLTALPHFFMGYYRYSKETNINSSENSTSTLSTCLINQILSLNRASPEIVGKGCLKESGSYMWIYVFMGNMLRGIGETPIVPLGLSYIDDFAKEGHSSLYLGILNAIAMIGPIIGFTLGSLFSKMYVDIGYVDLSTIRITPTDSRWVGAWWLNFLVSGLFSIISSIPFFFLPQTPNKPQKERKASLSLHVLETNDEKDQTANLTNQGKNITKNVTGFFQSFKSILTNPLYVMFVLLTLLQVSSYIGAFTYVFKYVEQQYGQPSSKANILLGVITIPIFASGMFLGGYIIKKFKLNTVGIAKFSCFTAVMSLSFYLLYFFILCENKSVAGLTMTYDGNNPVTSHRDVPLSYCNSDCNCDESQWEPVCGNNGITYISPCLAGCKSSSGNKKPIVFYNCSCLEVTGLQNRNYSAHLGECPRDDACTRKFYFFVAIQVLNLFFSALGGTSHVMLIVKIVQPELKSLALGFHSMVIRALGGILAPIYFGALIDTTCIKWSTNNCGTRGSCRTYNSTSFSRVYLGLSSMLRVSSLVLYIILIYAMKKKYQEKDINASENGSVMDEANLESLNKNKHFVPSAGADSETHC
Km [8]: 3.8 µM
